Source: patent US6017911A, “Pyridonecarboxylic acid derivatives and intermediates for the synthesis thereof” (Dainippon Pharmaceutical Co., Ltd., priority 1996, dated 2000)
≈ marks a conversion by molar mass, not a printed value. Read-outs that look alike come from different tables or passages of the source.

Key:
[1] = system: Pseudomonas aeruginosa No 12; assay: In vitro antibacterial activity (MIC), Pseudomonas aeruginosa No 12; assay type: cell-based; settings: NO12, read-out: Minimum inhibitory concentration (MIC)
[2] = system: Staphylococcus aureus 50774; assay: Effect on systemic infection in mice; assay type: in vivo, mice (male Std-ddy strain); settings: 168 h; Staphylococcus aureus 50774 i.p. infection; oral, twice (immediately and 6 h after infection); survival 7 days after infection
Description: The effects (ED50; mg/kg) on systemic infection in mice were determined as follows: Male Std-ddy strain mice (weighing about 20 g) were infected with each of the pathogenic bacteria shown in Table 2 by administering 5×10^3 viable cells intraperitoneally to each mouse. Then, a suspension of each test compound in 0.4% carboxymethylcellulose was orally administered twice, i.e., immediately after infection and 6 hours after infection. Seven days after infection, the ED50 value was calculated from the survival rate of each mouse group by probit analysis.
As a reference compound, there was used enoxacin [1-ethyl-6-fluoro-1,4-dihydro-4-oxo-7-(1-piperazinyl-1,8-naphthyridine-3-carboxylic acid; hereinafter abbreviated as ENX] that is an excellent antibacterial agent currently on the market.
The test compounds shown in the following Tables 1 and 2 are identified by the respective numbers of the Examples which will be given later.

[3] = system: Staphylococcus aureus MS16405; assay: In vitro antibacterial activity (MIC), Staphylococcus aureus MS16405; assay type: cell-based
[4] = system: Staphylococcus aureus 50774; assay: In vitro antibacterial activity (MIC), Staphylococcus aureus 50774; assay type: cell-based
[5] = system: Escherichia coli NIHJ JC-2; assay: In vitro antibacterial activity (MIC), Escherichia coli NIHJ JC-2; assay type: cell-based; settings: NIHJJC2, read-out: Minimum inhibitory concentration (MIC)
[6] = Staphylococcus aureus MS16405, read-out: Minimum inhibitory concentration (MIC)
[7] = Staphylococcus aureus 50774, read-out: Minimum inhibitory concentration (MIC)
[8] = Staphylococcus aureus, MS16405, read-out: Minimum inhibitory concentration (MIC)

MIC [1] [µg/mL]	MIC [3, 6] [µg/mL]	MIC [4, 7] [µg/mL]	MIC [5] [µg/mL]	Compound	ED50 [2] [mg/kg]	MIC [3, 8] [µg/mL]	MIC ([4]; Staphylococcus aureus, 50774, read-out: Minimum inhibitory concentration (MIC)) [µg/mL]
1.56 (≈ 3.62 µM)	3.13 (≈ 7.25 µM)	0.013 (≈ 0.0301 µM)	0.2 (≈ 0.464 µM)	CN[C@H]1CN(c2c(F)c(C)c3c(=O)c(C(=O)O)cn(C4CC4)c3c2OC)[C@@H]2CCO[C@H]12 (relative stereo) [Example 8]	0.345		
1.56 (≈ 3.61 µM)	1.56 (≈ 3.61 µM)	0.025 (≈ 0.0578 µM)	0.05 (≈ 0.116 µM)	CN[C@H]1CN(c2c(F)c(N)c3c(=O)c(C(=O)O)cn(C4CC4)c3c2OC)[C@@H]2CCO[C@H]12 (relative stereo) [Example 9]	0.415		
1.56 (≈ 3.61 µM)	0.39 (≈ 0.902 µM)	0.013 (≈ 0.0301 µM)	0.1 (≈ 0.231 µM)	COc1c(N2C[C@H](N)[C@H]3OCCC[C@H]32)c(F)c(N)c2c(=O)c(C(=O)O)cn(C3CC3)c12 (relative stereo) [Example 12]	0.715		
0.78 (≈ 1.86 µM)	1.56 (≈ 3.73 µM)	0.013 (≈ 0.0311 µM)	0.05 (≈ 0.119 µM)	COc1c(N2C[C@@H](N)[C@H]3OCC[C@H]32)c(F)c(N)c2c(=O)c(C(=O)O)cn(C3CC3)c12 (relative stereo) [Example 13]	0.778		
1.56 (≈ 3.55 µM)	1.56 (≈ 3.55 µM)	0.025 (≈ 0.0569 µM)	0.025 (≈ 0.0569 µM)	N[C@H]1CN(c2c(F)cc3c(=O)c(C(=O)O)cn(C4CC4)c3c2OC(F)F)[C@@H]2CCO[C@@H]21 (relative stereo) [Example 14]	≤ 0.78		
0.78 (≈ 1.91 µM)	0.78 (≈ 1.91 µM)	0.025 (≈ 0.0613 µM)	0.013 (≈ 0.0319 µM)	N[C@H]1CN(c2c(F)cc3c(=O)c(C(=O)O)cn(C4CC4)c3c2Cl)[C@@H]2CCO[C@@H]21 (relative stereo) [Example 15]	1.12		
1.56 (≈ 3.74 µM)	1.56 (≈ 3.74 µM)	0.006 (≈ 0.0144 µM)	0.1 (≈ 0.24 µM)	COc1c(N2C[C@@H](N)[C@H]3OCC[C@H]32)c(F)c(C)c2c(=O)c(C(=O)O)cn(C3CC3)c12 (relative stereo) [Example 16]	0.78		
0.39 (≈ 0.996 µM)	1.56 (≈ 3.99 µM)	0.025 (≈ 0.0639 µM)	0.006 (≈ 0.0153 µM)	N[C@H]1CN(c2c(F)cc3c(=O)c(C(=O)O)cn(C4CC4)c3c2F)[C@@H]2CCO[C@@H]21 (relative stereo) [Example 18]	0.928		
1.56 (≈ 3.74 µM)	0.78 (≈ 1.87 µM)	0.013 (≈ 0.0311 µM)	0.1 (≈ 0.24 µM)	COc1c(N2C[C@@H](N)[C@H]3OCCC[C@H]32)c(F)cc2c(=O)c(C(=O)O)cn(C3CC3)c12 (relative stereo) [Example 19]	0.928		

Compound	MIC [1] [µg/mL]	MIC [3, 6] [µg/mL]	MIC [4, 7] [µg/mL]	MIC [5] [µg/mL]	ED50 [2] [mg/kg]	MIC [3, 8] [µg/mL]	MIC ([4]; Staphylococcus aureus, 50774, read-out: Minimum inhibitory concentration (MIC)) [µg/mL]
COc1c(N2C[C@H](N)[C@H]3OCCC[C@H]32)c(F)cc2c(=O)c(C(=O)O)cn(C3CC3)c12 (relative stereo) [Example 10]	3.13 (≈ 7.5 µM)		0.013 (≈ 0.0311 µM)	0.1 (≈ 0.24 µM)	0.465	0.39 (≈ 0.934 µM)	
CCn1cc(C(=O)O)c(=O)c2cc(F)c(N3CCNCC3)nc21 [ENX, reference compound]	0.78 (≈ 2.44 µM)			0.05 (≈ 0.156 µM)	9.89	100 (≈ 312 µM)	0.39 (≈ 1.22 µM)
